In patent US11154519B2, “Inhibitors and their uses” (MEDICAL RESEARCH COUNCIL, priority 2015, dated 2021):

Assays:
[1] = target: T1, PPP1R15A-PP1 complex (Homo sapiens, UniProt O75807); experiment: SPR steady-state binding to R15A-PP1 holophosphatase; conditions: SPR steady-state, MBP-R15A325-636-His captured on bio-PP1c, 10° C.; read-out: R15A (KD)
T1 construct: cDNAs encoding amino acids 325-636 of PPP1R15A and 340-698 of PPP1R15B were His-tagged and cloned into pMAL-c5x; made in house; host or cells: R15A: E. coli BL21-Gold (pMAL-c5x); PP1γ: Sf9 insect cells (baculovirus, pDW464)
Description: (§1) PPP1R15A^325-636 and PPP1R15B^340-698 were expressed and purified as follows: the cDNAs encoding amino acids 325-636 of PPP1R15A and 340-698 of PPP1R15B were His-tagged and cloned into pMAL-c5x. Recombinant PPP1R15A/B were expressed in BL21-Gold cells and purified by affinity chromatography on a HisTrap HP column (GE Healthcare), followed by a MBPTrap HP column (GE Healthcare). The proteins were analyzed on BOLT SDS-PAGE 4-12% Bis-Tris gels (Life Technologies) stained with SimplyBlue SafeStain (Life Technologies). cDNA encoding for human PP1γ was cloned into the baculovirus transfer vector pDW464 to add a biotin acceptor peptide (BAP). The vector also encodes for the E. coli biotin holoenzyme synthetase (BirA), so that BAP-tagged proteins can be biotinylated in vivo in Spodoptere frugiperda (Sf9) insect cells (Duffy et al., Anal. Biochem., 262, 122-128, 1998). The Bac-to-Bac baculovirus expression system (Life Technologies) was used to generate the recombinant bacmid DNA and Sf9 insect cells were used to amplify the viral stocks Cultures were harvested by centrifuging at 1,200 g for 15 minutes, cell pellets were resuspended in lysis buffer (50 mM Tris pH 7.4, 150 mM NaCl, 0.2% Triton, 5% Glycerol, 1 PiC tablet (Roche) per 50 ml and 0.2 mM PMSF) and followed by gentle sonication. The protein was first purified on a 5 ml HiTrap Q HP column (GE Healthcare) followed by a HiLoad 16/600 Superdex 200 column (GE Healthcare). The positive fractions confirmed by SDS-PAGE and western blot were pooled, concentrate to ˜1 μM and stored at −80° C.
(§2) A Biacore T200 (GE Healthcare) system was used for all experiments and biotinylated PP1 was captured using a Sensor Chip SA (GE Healthcare, catalog no BR-1005-31). The streptavidin coated surface was activated by 1 min injection with a solution of 50 mM NaOH and 1 M NaCl. Biotin-PP1 was diluted in the running buffer (50 mM Tris pH 7.5, 100 mM NaCl, 0.1 mM EGTA, 1 mM MnCl2, 0.05% Tween 20) and injected at approximately 300 nM concentration directly to streptavidin coated surface for 100 sec or to reach immobilization level of biotin-PP1 corresponding to ˜7000 RU. A blank immobilization was performed for one of the SA sensor chip surface to use as a reference.
(§3) With minor deviations, the same procedure and conditions were used in all binding experiments. Small molecules were stored as 50 mM stock solutions in 100% DMSO. Prior to determining binding constants, serial dilutions of either 12 or 8 concentrations of the compounds were prepared in the running buffer in a 96-well plate. Prior to each compound dilution series the regulatory subunit, R15A or R15B, was diluted to […] in the running buffer and captured on the biotin-PP1 surface, to form the holophosphatase complex on the sensor chip surface. Then, without regenerating the surface, the compound dilution series was injected onto the surface of the chip Sensorgrams were analyzed using the Biacore T200 evaluation software and the binding constants determined based on a steady-state model. Kinetic experiments are carried out using different concentrations of the compound and their respective equilibrium binding levels determined.
(§4) Surface Plasmon Resonance (SPR) was used to measure the binding affinity of compounds to the PPP1R15A/B-PP1 phosphatase complex. Biotin acceptor peptide (BAP) was fused to the N-terminus of PP1γ, which enables the biotinylation of the BAP-tagged protein in Sf9 insect cells. After purification the BAP-PP1γ protein was captured on a streptavidin sensor chip (SA-chip, GE healthcare) to a response level of ˜5.000 RU. Using controlled biotinylation enables orientated and uniform immobilization on the sensor chip surface. The PP1γ was then used to capture PPP1R15A/B and form a holophosphatase complex on the surface of the streptavidin chip. This complex can then be used to test binding of compounds. 10 μM PPP1R15A/B protein concentration was used to form the holophosphatase complex during a 80 s injection. […]

[2] = target: T2, PPP1R15B-PP1 (Homo sapiens, UniProt Q5SWA1); experiment: SPR steady-state binding to R15B-PP1 holophosphatase; conditions: SPR steady-state, MBP-R15B340-698-His captured on bio-PP1c, 10° C.; read-out: R15B (KD)
T2 construct: cDNAs encoding amino acids 325-636 of PPP1R15A and 340-698 of PPP1R15B were His-tagged and cloned into pMAL-c5x; made in house; host or cells: R15B: E. coli BL21-Gold (pMAL-c5x); PP1γ: Sf9 insect cells (baculovirus, pDW464)
Description: as §1, §2, §3, §4

[3] = tested on: HeLa cells; experiment: Cytoprotection against ER stress (tunicamycin), IncuCyte; assay type: cell-based; conditions: Homo sapiens, 250 ng/ml Tunicamycin, 72 hours, compound 0-20 μM, read-out: Cytoprotection from Tm (compared to GNB)
Description: HeLa cells (40,000 cells/ml) were plated in a 96-well plate and treated with different concentrations (0-20 μM) of a compound as indicated in the presence of 250 ng/ml Tunicamycin for 72 hours. To monitor cell death 1/2000 dilution of the CellTox green dye (Promega) was added to the media. The growth of the cells was monitored over time and pictures taken every 2 hours with the IncuCyte ZOOM system and analysed by the IncuCyte ZOOM software (Essen BioScience). […] Cytoprotection against ER stress can be measured by a suitable assay. In this instance, cytoprotection was measured in HeLa cells in which ER stress was elicited by the addition of media containing tunicamycin, a drug that blocks N-glycosylation, thereby preventing protein folding and inducing the unfolded protein response. Cell viability was then detected in the presence and absence of a compound listed in Table 1 after a set period of time, by monitoring cell growth over time. Cytoprotection from ER stress was measured in terms of the percentage increase in viable cells (relative to control) after ER stress.

[4] = tested on: protein synthesis; experiment: Assessment of translation rates (35S-methionine labelling); assay type: cell-based; conditions: for Effect on translation: 35S-methionine labelling of cells; for Effect on translation ⇒ Inhibits: target(s) concluded to be inhibited
Description: Cells (90,000 cells/ml) were plated in 12-well plates, treated as indicated, labelled with 100 μCi/mI 35S-methionine (Hartmann Analytic) for 10 minutes at 37° C., washed with ice-cold PBS and lysed in 120 μl Laemmli Buffer. Lysates were boiled at 95° C. for 5 minutes, sonicated and resolved on 4-12% Bolt Bis-Tris Plus Gels (Thermo Fisher Scientific). Gels were then stained with InstantBlue (Expedeon) and analyzed by phosphorimaging and quantified using ImageJ.
By monitoring translation rates as described above, the activities of R15A, R15B and R15A/B inhibitors can be defined as follows (also shown in FIG. 12). An R15A inhibitor has no effect on translation in unstressed cells but prolongs translation attenuation following stress. A selective R15B inhibitor transiently attenuate protein synthesis because R15A compensates for the inhibition of R15B.

T2 sequence (Q5SWA1 340-698): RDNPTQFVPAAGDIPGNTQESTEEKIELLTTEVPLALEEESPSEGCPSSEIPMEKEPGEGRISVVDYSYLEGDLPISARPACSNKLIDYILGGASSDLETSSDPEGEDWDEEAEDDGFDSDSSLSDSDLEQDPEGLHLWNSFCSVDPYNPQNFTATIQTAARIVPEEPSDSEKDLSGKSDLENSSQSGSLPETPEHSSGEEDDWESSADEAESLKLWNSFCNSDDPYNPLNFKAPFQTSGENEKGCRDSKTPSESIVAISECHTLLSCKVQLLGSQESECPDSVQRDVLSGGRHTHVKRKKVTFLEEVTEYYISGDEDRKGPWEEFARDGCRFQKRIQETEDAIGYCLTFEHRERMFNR
T2 sequence (P36873 whole entry partner, the tested form may be a part): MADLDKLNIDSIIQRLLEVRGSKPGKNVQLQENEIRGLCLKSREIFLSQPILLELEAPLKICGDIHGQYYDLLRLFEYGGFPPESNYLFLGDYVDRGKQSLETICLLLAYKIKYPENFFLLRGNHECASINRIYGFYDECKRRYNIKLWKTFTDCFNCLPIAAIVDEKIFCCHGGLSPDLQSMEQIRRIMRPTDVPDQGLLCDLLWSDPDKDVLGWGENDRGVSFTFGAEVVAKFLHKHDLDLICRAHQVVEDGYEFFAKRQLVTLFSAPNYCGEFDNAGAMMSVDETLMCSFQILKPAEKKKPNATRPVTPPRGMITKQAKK
T1 sequence (O75807 325-636): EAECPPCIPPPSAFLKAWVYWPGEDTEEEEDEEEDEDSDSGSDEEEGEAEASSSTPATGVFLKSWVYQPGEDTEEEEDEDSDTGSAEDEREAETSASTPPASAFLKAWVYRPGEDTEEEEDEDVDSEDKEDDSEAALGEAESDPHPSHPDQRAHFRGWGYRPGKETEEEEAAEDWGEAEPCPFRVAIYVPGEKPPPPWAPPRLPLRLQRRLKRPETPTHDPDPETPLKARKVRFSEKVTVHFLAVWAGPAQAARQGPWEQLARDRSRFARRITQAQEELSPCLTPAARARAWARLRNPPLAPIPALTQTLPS
T1 sequence (P36873 whole entry partner, the tested form may be a part): as the sequence (P36873 whole entry partner, the tested form may be a part) above

[H]/N=C(\N)NN=Cc1ccccc1F [Compound 17, (E)-2-(2-fluorobenzylidene)hydrazine-1-carboximidamide]
Kd [1]: 13 ± 0.5 µM
Kd [2]: 18.1 ± 1.8 µM
Emax [3]: 66%
Effect on translation [4]: (No)

[H]/N=C(\N)NN=Cc1cc(F)ccc1Cl [Compound 20, (E)-2-(2-chloro-5-fluorobenzylidene)hydrazine-1-carboximidamide]
Kd [1]: 5.67 ± 0.72 µM
Kd [2]: 5.17 ± 0.69 µM
Emax [3]: 88%
Effect on translation ⇒ Inhibits [4]: R15AB

[H]/N=C(\N)NN=Cc1cccnc1Cl [Compound 21, (E)-2-((2-chloropyridin-3-yl)methylene)hydrazine-1-carboximidamide]
Kd [1]: 0.832 µM
Kd [2]: 0.537 µM
Emax [3]: 41%
Effect on translation [4]: Transient

[H]/N=C(\N)NN=Cc1ccc(Cl)nc1Cl [Compound 22, (E)-2-((2,6-dichloropyridin-3-yl)methylene)hydrazine-1-carboximidamide]
Kd [1]: 7.62 µM
Kd [2]: 12.3 µM
Emax [3]: 48%
Effect on translation ⇒ Inhibits [4]: R15AB

[H]/N=C(\N)NN=Cc1cccc(F)c1 [Compound 23, (E)-2-(3-fluorobenzylidene)hydrazine-1-carboximidamide]
Kd [1]: 1.42 µM
Kd [2]: 1.05 ± 0.32 µM
Emax [3]: 53%
Effect on translation ⇒ Inhibits [4]: R15AB

[H]/N=C(\N)NN=Cc1cccc(Cl)c1 [Compound 24, (E)-2-(3-chlorobenzylidene)hydrazine-1-carboximidamide]
Kd [1]: 18.1 ± 7.57 µM
Kd [2]: 18.7 µM
Emax [3]: 62%
Effect on translation ⇒ Inhibits [4]: R15AB

[H]/N=C(\N)NN=Cc1cc(Cl)ccc1Cl [Compound 26, (E)-2-(2,5-dichlorobenzylidene)hydrazine-1-carboximidamide]
Kd [1]: 23.1 ± 0.9 µM
Kd [2]: 30 ± 2.3 µM
Emax [3]: 57%
Effect on translation ⇒ Inhibits [4]: R15AB

[H]/N=C(\N)NN=Cc1cc(F)cc(F)c1Cl [Compound 29, (E)-2-(2-chloro-3,5-difluorobenzylidene)hydrazine-1-carboximidamide]
Kd [1]: 7.87 ± 1.48 µM
Kd [2]: 4.06 µM
Emax [3]: 62%
Effect on translation ⇒ Inhibits [4]: R15AB

[H]/N=C(\N)NN=Cc1cccc(Cl)c1F [Compound 30, (E)-2-(3-chloro-2-fluorobenzylidene)hydrazine-1-carboximidamide]
Kd [1]: 5.15 ± 1.7 µM
Kd [2]: 12.3 ± 0.6 µM
Emax [3]: 85%
Effect on translation [4]: No

[H]/N=C(\N)NN=Cc1c(Cl)ccc(Cl)c1Cl [Compound 31, (E)-2-(2,3,6-trichlorobenzylidene)hydrazine-1-carboximidamide]
Kd [1]: 11.1 ± 1.6 µM
Kd [2]: 14.3 ± 0.7 µM
Emax [3]: 99%
Effect on translation [4]: No

[H]/N=C(\N)NN=Cc1cc(Cl)cc(Cl)c1 [Compound 34, (E)-2-(3,5-dichlorobenzylidene)hydrazine-1-carboximidamide]
Kd [1]: 17.2 ± 1.9 µM
Kd [2]: 31.3 ± 2 µM
Emax [3]: 57%
Effect on translation ⇒ Inhibits [4]: R15AB
